Experimental data published in patent publication US20220133761A1, “NEUTROPHIL APOPTOSIS INDUCED BY NANOPARTICLES FOR TREATING INFLAMMATORY DISEASES” (WASHINGTON STATE UNIVERSITY, priority 2020, published 2022).

Legend:
LPS-challenged mice = assay: Survival study in sepsis mouse model (i.p. LPS 50 mg/kg); format: in vivo; details: 72 h, 0.2 mg/kg DOX i.v. 4 h after i.p. LPS 50 mg/kg
Protocol: Adult CD-1 mice were i.p. injected with LPS (50 mg/kg) in the mouse sepsis model. 4 hours later, the LPS-challenged mice were grouped randomly (10 mice per group) and treated (i.v.) with PBS, free DOX (0.2 mg/kg), and prodrug DOX-hyd-BSA NPs (equal to 0.2 mg/kg of free DOX). The animals were monitored every 6 h in the first 12 h followed by monitoring mice every 12 h in 72 h.

[1] = system: heart, liver, spleen, lung and kidney; assay: Toxicity by histological analysis (H&E staining of major organs); details: for tissue or cellular damage in H&E sections of heart, liver, spleen, lung, kidney: 0.2 mg/kg DOX
Protocol: After different treatments (healthy, PBS, 4 mg/kg of free DOX, 0.2 mg/kg of free DOX, DOX-hyd-BSA NPs and DOX-ab-BSA NPs, equal to 0.2 mg/kg of DOX for NPs), mice were sacrificed by carbon dioxide asphyxiation. […] The samples were imaged by a microscope (ZEISS, Observer. Z1, USA).

[2] = system: differentiated HL-60 cells (neutrophil-like cells); assay: In vitro cytotoxicity, CCK-8 assay; format: cell-based, human; details: 24 h, different concentrations of DOX
Protocol: Cytotoxic effects of BSA NPs on HL-60 cells were measured by CCK-8 assay. HL-60 cells were plated in 96-well plates (Costar, Corning, N.Y.) at 5,000-10,000 cells/well. After incubation for 24 h, the culture medium was removed and a complete medium with various concentrations of free DOX, BSA and DOX-conjugated BSA NPs was used to incubate cells for 24 h, respectively. 10 μL of the solution cell proliferation reagent (Promega, Madison, Wis.) per well was added. Then, the cell viability was measured by a Synergy Neo fluorescence plate reader (BioTek, Winooski, Vt.) at 490 nm.

[3] = system: differentiated HL-60 cells; assay: TUNEL apoptosis assay; format: cell-based, human; details: CLSM images
Protocol: To further confirm the apoptosis of differentiated HL-60 cells induced by DOX, TUNEL assay was also performed using Cell Meter™ TUNEL (green fluorescence) Apoptosis Assay Kit (AAT Bioquest, Inc.) according to the manufacturer's protocol and the images were taken by a Nikon A1R^+ confocal laser scanning microscope.

[4] = system: differentiated HL-60 cells; assay: Apoptosis analysis, Annexin V-FITC / 7AAD staining (flow cytometry, CLSM); format: cell-based, human; details: for apoptotic cells by flow cytometry: 24 h, DOX 3 μg/mL; for Annexin V-FITC / 7AAD staining by confocal microscopy: 24 h treatment
Protocol: To investigate the apoptosis of neutrophils induced by DOX, Annexin V-FITC and 7AAD were used to double stain differentiated HL-60 cells. […] The cells were re-suspended in a binding buffer for staining of Annexin V-FITC and 7AAD (emission at 650 nm) according to the manufacturer's protocol (Invitrogen). Stained cells were analyzed using a flow cytometer and imaged by a Nikon A1R^+ confocal laser scanning microscope.

[5] = Serum stability of nanoparticles in PBS with 20% FBS; format: physicochemical; details: pH 7.4, incubation for 4 days
Protocol: Particle size and polydispersity indexes (PDI) were measured using Malvern Zetasizer Nano90 (Westborough, Mass.). The samples were incubated in PBS at pH 7.4 for 2 h, and the measurements were conducted in a 1.0 mL quartz cuvette using a diode laser of 633 nm at 25° C. and a scattering angle was fixed at 90°. To evaluate their serum stability, nanoparticles were dispersed in 20% FBS PBS solution (pH 7.4) at a final concentration of 1 mg/mL. Nanoparticle sizes were measured at the predefined time points. Transmission electron microscopy (TEM) of nanoparticles was also performed using a FEI Technai G2 20 Twin TEM (Hillsboro, Oreg.).

[6] = pH-triggered DOX release, UV-Vis of supernatants after 2 h incubation; format: physicochemical; details: pH 5.0 to 7.4, 2 h incubation in PBS
Protocol: To confirm the pH-triggered drug release property, BSA NPs, DOX-ab-BSA NPs and DOX-hyd-BSA NPs were incubated in PBS at pH 7.4, 6.5 and 5.0 for 2 h, respectively. After centrifugation, the supernatants were collected to determine DOX concentrations using a UV-Vis spectrometer.

[7] = In vitro drug release profile (dialysis, 37 C); format: physicochemical; details: pH 5.0-7.4, in 48 h
Protocol: Release profiles of DOX from NPs were studied using dialysis method at 37° C.(33) Briefly, 3 mg of NPs was dispersed in 3 mL (Ve) PBS at different pH, and then was placed in a dialysis bag (MWCO 3500 Da). The dialysis bag was immersed in 47 mL PBS (pH 7.4, 6.5 or 5.0) in a beaker. The beaker was then placed in a 37° C. water bath and stirred at 110 rpm. The samples were drawn at desired time intervals and the drug concentration was measured using UV-Vis absorption. The experiments were carried out in triplicate at each pH value. The accumulative drug release percent (Er) was calculated based on equation (1).
where, mdrug represents the amount of DOX in NPs, V0 was the whole volume of release media (V0=50 mL), Ci represents the concentration of DOX in the ith sample.

Compound: COc1cccc2c1C(=O)c1c(O)c3c(c(O)c1C2=O)C[C@@](O)(C(=O)CO)C[C@@H]3O[C@H]1C[C@H](N)[C@H](O)[C@H](C)O1.Cl [free DOX, doxorubicin hydrochloride]
- mouse survival (LPS-challenged mice): 10-20%
- tissue or cellular damage in H&E sections of heart, liver, spleen, lung, kidney [1]: did not show any noticeable signs of tissue or cellular damage
- myocardial damage (vacuolization, myofibril loss) ([1]; high dose 4.0 mg/kg): induced myocardial damage
- cytotoxicity (cell viability) [2]: cytotoxicity was similar for both free DOX and DOX-hyd-BSA NPs
- cells with co-staining of DOX and TUNEL [3]: ~100%
- apoptotic cells by flow cytometry [4]: 73%
- Annexin V-FITC / 7AAD staining by confocal microscopy [4]: contained staining of Annexin-V-FITC, and less staining of 7AAD

Compound: DOX-ab-BSA NPs
- serum stability (aggregation, diameter change) [5]: no aggregation (diameter change) was observed
- DOX absorption in supernatant [6]: did not show the absorption of DOX in their supernatants
- tissue or cellular damage in H&E sections of heart, liver, spleen, lung, kidney [1]: did not show any noticeable signs of tissue or cellular damage
- cytotoxicity (cell viability) [2]: more efficient compared to that of DOX-ab-BSA NPs
- co-staining of DOX and TUNEL [3]: a few cells possessed TUNEL signal
- apoptotic cells by flow cytometry [4]: 20%
- Annexin V-FITC / 7AAD staining by confocal microscopy [4]: did not induce cell apoptosis
- cumulative DOX release [7]: 10-20%
